From PubChem BioAssay AID256 (DTP/NCI, 2004)
Inconclusive results and toxic doses are left out. Rule for the calls: active = survival T/C of 150% or more; inactive = T/C below 125% in these data.

Test system: CD2F1 mice, L1210 leukemia ip, survival T/C
Experiment: NCI In Vivo Anticancer Drug Screen. Data for tumor model L1210 Leukemia (intraperitoneal) in CD2F1 (CDF1) mice
Conditions: endpoint: mean survival time, schedule: Q01DX001 (ip), vehicle: saline, higher = longer survival
Procedure, shortened: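 Each value reflects a quotient of treated over vehicle control outcomes in mice with a transplanted tumor.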

Measured: T/C

CN(C)B(B(N(C)C)N(C)C)N(C)C
inactive: dose: 100.0 mg/kg/injection 105 % of control | dose: 200.0 mg/kg/injection 97 % of control | dose: 400.0 mg/kg/injection 101 % of control
